# Measurements published in ChEMBL document CHEMBL1130853, “Synthesis and biological properties of new 1 beta-methylcarbapenems” (Bioorg Med Chem Lett, 1998).
# Key:
# [1] = Antibacterial activity against Enterobacter cloacae 1321E; type: functional
# Streptococcus pyogenes [2] = assay: Antibacterial activity against Streptococcus pyogenes 77A; type: functional
# Pseudomonas aeruginosa [3] = assay: microbe, parasite or virus in culture; type: functional
# Description: Compound was evaluated for antibacterial activity against Pseudomonas aeruginosa 1592E
# Enterococcus faecium = assay: Antibacterial activity against Streptococcus faecium MD 8b; type: functional
# Staphylococcus aureus = assay: Antibacterial activity against Staphylococcus aureus SG 511; type: functional
# Salmonella typhimurium = assay: Antibacterial activity against Salmonella Typhimurium; type: functional, Salmonella enterica subsp. enterica serovar Typhimurium; settings: Salmonella enterica
# Escherichia coli [4] = assay: microbe, parasite or virus in culture; type: functional
# Description: Antibacterial activity against Escherichia coli 1507E
# Klebsiella aerogenes = assay: Antibacterial activity against Klebsiella aerogenes 1522E; type: functional
# Pseudomonas aeruginosa [5] = assay: microbe, parasite or virus in culture; type: functional; remark: listed apart in the source
# Description: Antibacterial activity against Pseudomonas aeruginosa 1771M
# Pseudomonas aeruginosa [6] = assay: Compound was tested for in vivo protective activity against Pseudomonas aeruginosa 1771M at a single subcutaneous administration in mice.; type: functional; settings: sc, read-out: PD50
# Streptococcus pyogenes [7] = assay: Compound was tested for in vivo protective activity against Streptococcus pyogenes 77A at a single subcutaneous administration in mice.; type: functional; settings: sc, read-out: PD50
# [8] = Time taken by the compound to reach maximum concentration.; type: ADME
# Escherichia coli [9] = assay: Compound was tested for in vivo protective activity against Escherichia coli 078 at a single subcutaneous administration in mice.; type: functional; settings: sc, read-out: PD50
# [10] = target: T1, Dipeptidase 1 (Sus scrofa) (UniProt P22412); assay: Compound was evaluated for relative rate of hydrolysis to imipenem by partially purified porcine renal Dehydropeptidase-1; parameters: scale not given: the % may be the effect or the level left
# T1 sequence (whole entry): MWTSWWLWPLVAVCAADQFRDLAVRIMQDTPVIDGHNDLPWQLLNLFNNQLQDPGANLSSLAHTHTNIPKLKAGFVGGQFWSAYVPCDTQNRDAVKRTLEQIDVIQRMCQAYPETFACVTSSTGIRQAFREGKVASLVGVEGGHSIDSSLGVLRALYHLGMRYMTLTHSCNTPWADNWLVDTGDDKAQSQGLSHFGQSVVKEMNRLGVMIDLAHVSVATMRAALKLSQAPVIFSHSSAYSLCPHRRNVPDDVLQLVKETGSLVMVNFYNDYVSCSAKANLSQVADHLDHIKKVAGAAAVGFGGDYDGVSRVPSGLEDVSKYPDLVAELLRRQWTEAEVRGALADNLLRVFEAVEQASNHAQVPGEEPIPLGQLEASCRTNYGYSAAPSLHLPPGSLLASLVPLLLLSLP
Compound,MIC [1] [µg/mL],MIC (Streptococcus pyogenes [2]) [µg/mL],MIC (Pseudomonas aeruginosa [3]) [µg/mL],MIC (Enterococcus faecium) [µg/mL],MIC (Staphylococcus aureus) [µg/mL],MIC (Salmonella typhimurium) [µg/mL],MIC (Escherichia coli [4]) [µg/mL],MIC (Klebsiella aerogenes) [µg/mL],MIC (Pseudomonas aeruginosa [5]) [µg/mL],ED50 (Pseudomonas aeruginosa [6]) [mg/kg],ED50 (Streptococcus pyogenes [7]) [mg/kg],Tmax [8] [min],ED50 (Escherichia coli [9]) [mg/kg],Stability [10] [%]
C[C@@H](O)[C@H]1C(=O)N2C(C(=O)O)=C(S[C@@H]3CN[C@H](C(=O)NCCS(=O)(=O)N(C)C)C3)[C@H](C)[C@H]12,0.025,0.007,1.56,12.5,0.195,0.049,0.025,0.049,0.195,–,–,–,–,–
C[C@@H](O)[C@H]1C(=O)N2C(C(=O)O)=C(S[C@@H]3CN[C@H](C(=O)NCCC(=O)O)C3)[C@H](C)[C@H]12,0.049,0.049,6.25,50,1.56,0.098,0.049,0.098,3.12,–,–,–,–,–
C[C@@H](O)[C@H]1C(=O)N2C(C(=O)O)=C(S[C@@H]3CN[C@H](C(=O)NCCS(=O)(=O)N(C)CCO)C3)[C@H](C)[C@H]12,0.025,0.013,1.56,12.5,0.391,0.049,0.025,0.049,0.781,–,–,–,–,–
C[C@@H](O)[C@H]1C(=O)N2C(C(=O)O)=C(S[C@@H]3CN[C@H](C(=O)N(C)C)C3)[C@H](C)[C@H]12 [MEROPENEM],0.025,0.002,0.195,12.5,0.098,0.025,0.025,0.049,0.049,1.76,7.16,12.6,1.24,3200
C=CCNS(=O)(=O)CCNC(=O)[C@@H]1C[C@H](SC2=C(C(=O)O)N3C(=O)[C@H]([C@@H](C)O)[C@H]3[C@H]2C)CN1,0.025,0.007,1.56,6.25,0.195,0.049,0.025,0.049,0.781,–,–,–,–,–
C[C@@H](O)[C@H]1C(=O)N2C(C(=O)O)=C(S[C@@H]3CN[C@H](C(=O)NCCS(=O)(=O)N4CCCC4)C3)[C@H](C)[C@H]12,0.013,0.004,6.25,6.25,0.098,0.025,0.013,0.025,0.391,–,–,–,–,–
CNC(=O)CCNC(=O)[C@@H]1C[C@H](SC2=C(C(=O)O)N3C(=O)[C@H]([C@@H](C)O)[C@H]3[C@H]2C)CN1,0.025,0.013,0.781,12.5,0.391,0.049,0.025,0.049,0.391,–,–,–,–,–
C[C@@H](O)[C@H]1C(=O)N2C(C(=O)O)=C(S[C@@H]3CN[C@H](C(=O)NCCS(N)(=O)=O)C3)[C@H](C)[C@H]12,0.025,0.004,0.195,6.25,0.098,0.025,0.013,0.049,0.195,2.6,2.31,< 19.8,0.47,2400
COC(=O)CCNC(=O)[C@@H]1C[C@H](SC2=C(C(=O)O)N3C(=O)[C@H]([C@@H](C)O)[C@H]3[C@H]2C)CN1,0.025,0.007,1.56,12.5,0.195,0.049,0.025,0.049,0.195,–,–,–,–,–
C[C@@H](O)[C@H]1C(=O)N2C(C(=O)O)=C(S[C@@H]3CN[C@H](C(=O)NCCC(N)=O)C3)[C@H](C)[C@H]12,0.025,0.007,0.391,12.5,0.195,0.049,0.025,0.049,0.195,–,–,–,–,2600
C[C@@H](O)[C@H]1C(=O)N2C(C(=O)O)=C(SCCNC=N)C[C@H]12 [IMIPENEM ANHYDROUS],0.195,0.004,0.781,1.56,0.013,0.781,0.195,0.391,0.195,–,–,–,–,10000

# Continued, in another order:
MIC [1] [µg/mL],MIC (Streptococcus pyogenes [2]) [µg/mL],MIC (Pseudomonas aeruginosa [3]) [µg/mL],MIC (Enterococcus faecium) [µg/mL],MIC (Staphylococcus aureus) [µg/mL],MIC (Salmonella typhimurium) [µg/mL],MIC (Escherichia coli [4]) [µg/mL],MIC (Klebsiella aerogenes) [µg/mL],MIC (Pseudomonas aeruginosa [5]) [µg/mL],Compound,ED50 (Pseudomonas aeruginosa [6]) [mg/kg],ED50 (Streptococcus pyogenes [7]) [mg/kg],Tmax [8] [min],ED50 (Escherichia coli [9]) [mg/kg],Stability [10] [%]
0.049,0.013,50,12.5,0.391,0.098,0.049,0.098,1.56,C[C@@H](O)[C@H]1C(=O)N2C(C(=O)O)=C(S[C@@H]3CN[C@H](C(=O)NCCS(=O)(=O)N4CCOCC4)C3)[C@H](C)[C@H]12,–,–,–,–,–
0.025,0.007,6.25,12.5,0.195,0.049,0.025,0.049,0.781,C[C@@H](O)[C@H]1C(=O)N2C(C(=O)O)=C(S[C@@H]3CN[C@H](C(=O)NCCC(=O)N4CCCC4)C3)[C@H](C)[C@H]12,–,–,–,–,–
0.025,0.007,1.56,12.5,0.195,0.049,0.025,0.049,0.391,C[C@@H](O)[C@H]1C(=O)N2C(C(=O)O)=C(S[C@@H]3CN[C@H](C(=O)NCCC(=O)N(C)C)C3)[C@H](C)[C@H]12,–,–,–,–,–
0.025,0.007,0.391,12.5,0.195,0.049,0.025,0.049,0.391,C[C@@H](O)[C@H]1C(=O)N2C(C(=O)O)=C(S[C@@H]3CN[C@H](C(=O)NCCS(=O)(=O)NCCO)C3)[C@H](C)[C@H]12,–,–,–,–,–
0.025,0.007,0.391,12.5,0.391,0.098,0.049,0.098,0.391,C[C@@H](O)[C@H]1C(=O)N2C(C(=O)O)=C(S[C@@H]3CN[C@H](C(=O)NCCC(=O)NCCO)C3)[C@H](C)[C@H]12,–,–,–,–,–
0.025,0.013,0.391,12.5,0.195,0.025,0.025,0.049,0.369,CNS(=O)(=O)CCNC(=O)[C@@H]1C[C@H](SC2=C(C(=O)O)N3C(=O)[C@H]([C@@H](C)O)[C@H]3[C@H]2C)CN1,–,–,–,–,–
